# In publication PMC2952885 (ChemMedChem, 2009):
# Molecular target: PDE7A1 catalytic domain (residues 130–482) (Homo sapiens, UniProt Q13946)
# Assay: [3H]cAMP hydrolysis radioassay
# Format: biochemical
# PDE7A1 catalytic domain (residues 130–482), sequence (Q13946 130-482): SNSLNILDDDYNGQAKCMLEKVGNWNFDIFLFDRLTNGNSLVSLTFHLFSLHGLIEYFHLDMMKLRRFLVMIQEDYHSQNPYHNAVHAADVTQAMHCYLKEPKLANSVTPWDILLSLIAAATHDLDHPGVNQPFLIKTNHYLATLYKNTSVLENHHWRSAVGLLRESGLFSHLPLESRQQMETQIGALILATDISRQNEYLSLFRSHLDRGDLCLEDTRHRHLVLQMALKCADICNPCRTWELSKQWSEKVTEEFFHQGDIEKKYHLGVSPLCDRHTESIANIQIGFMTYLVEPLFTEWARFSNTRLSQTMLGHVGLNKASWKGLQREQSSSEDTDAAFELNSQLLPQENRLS
row,Structure (SMILES),IC50 [µM]
1,"CC(C)Cn1c(=O)n(C)c(=O)c2[nH]cnc21 [IBMX, reference compound]",8.1 ± 0.4
2,"CSc1nc2ccsc2c(=O)n1-c1ccccc1 [compound 35, 2-Methylthio-4-oxo-3-phenyl-3,4-dihydrothieno[3,2-d]pyrimidine]",~10
3,"COc1ccc(C2CNC(=O)C2)cc1OC1CCCC1 (centres unmarked) [Rolipram, reference compound]",129 ± 10

# Results, then the compound that gave them:
row,IC50 [µM],Structure (SMILES)
1,0.41 ± 0.03,"CSc1nc2c(sc3ccccc32)c(=O)n1-c1c(F)cccc1F [compound 39, 3-(2,6-Difluorophenyl)-2-methylthio-4-oxo-3,4-dihydrobenzo-[4,5]thieno[3,2-d]pyrimidine]"
2,0.8 ± 0.2,"CSc1nc2ccsc2c(=O)n1-c1c(F)cccc1F [compound 36, 3-(2,6-Difluorophenyl)-2-methylthio-4-oxo-3,4-dihydrothieno-[3,2-d]pyrimidine]"
